# Reference: PubChem BioAssay (NCI)
# Values joined by “and” are separate entries in the source; they are usually repeats but may differ in a detail not shown here. Equal values may be shown once.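 Step 1: Grow cells in 96-well plates. Step 2: Expose to compound for 48 hours at 5 concentrations. Step 3: Interpolate endpoints linearly; if unreached, use highest concentration. GI50 = concentration required for 50% inhibition of growth. TGI: total growth inhibition.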
# Legend:
# Assay in all cases: DTP human tumour cell line panel, 48 h
# NCI-H226 lung = tested on: NCI-H226 lung
# NCI-H460 lung = tested on: NCI-H460 lung
# HOP-92 NSCLC = tested on: HOP-92 NSCLC
# UO-31 renal = tested on: UO-31 renal
# COLO 205 colon = tested on: COLO 205 colon
# SK-MEL-5 melanoma = tested on: SK-MEL-5 melanoma
# SN12C renal = tested on: SN12C renal
# SF-295 CNS = tested on: SF-295 CNS
# 786-0 renal = tested on: 786-0 renal
# SW-620 colon = tested on: SW-620 colon
Compound,GI50 (NCI-H226 lung),TGI (NCI-H226 lung),GI50 (NCI-H460 lung),TGI (NCI-H460 lung),GI50 (HOP-92 NSCLC),TGI (HOP-92 NSCLC),GI50 (UO-31 renal),TGI (UO-31 renal),GI50 (COLO 205 colon),TGI (COLO 205 colon),GI50 (SK-MEL-5 melanoma),TGI (SK-MEL-5 melanoma),GI50 (SN12C renal),TGI (SN12C renal),GI50 (SF-295 CNS),TGI (SF-295 CNS),GI50 (786-0 renal),TGI (786-0 renal),GI50 (SW-620 colon),TGI (SW-620 colon)
CCc1ccc(Oc2nccc(-c3c(-c4ccc(F)cc4)ncn3C3CCNCC3)n2)cc1,6.81 µM,16.3 µM,4.28 µM,8.49 µM,1.17 µM,9.53 µM,3.63 µM,9.5 µM,4.24 µM,7.93 µM,4.22 µM,7.71 µM,5.19 µM,13.9 µM,5.52 µM,12.1 µM,4.91 µM,10.4 µM,4.35 µM,8.74 µM
Cc1cc(N2CCN(C)CC2)nc(N(CCNc2ccnc3cc(Cl)ccc23)Cc2ccco2)n1,19.6 µM,37.9 µM,3.52 µM,11.8 µM,3.1 µM,14.9 µM,2.66 µM,11.9 µM,1.88 µM,5.18 µM,1.77 µM,3.24 µM,8.88 µM,21 µM,1.8 µM,3.79 µM,1.93 µM,4.83 µM,3.04 µM,12.4 µM
CC1(C)CC(=O)C(CC2C(=O)c3ccccc3C2=O)C(=O)C1C(=O)C(=O)Nc1cccc2ccc(O)cc12 (centres undefined),,> 100 µM,,> 100 µM,,> 100 µM,,> 100 µM,,> 100 µM,,> 100 µM,,> 100 µM,,> 100 µM,,> 100 µM,,> 100 µM
COc1ccc(/C=c2\sc3nnc(CCC(=O)Nc4cccc(C(F)(F)F)c4)n3c2=O)cc1,,> 100 µM,,> 100 µM,,> 100 µM,,> 100 µM,,> 100 µM,,> 100 µM,,> 100 µM,,> 100 µM,,> 100 µM,,> 100 µM
Nc1ncnc2c1nc(N)n2C1OC(CO)C(O)C1O (centres undefined),1.03 µM,3.38 µM,0.454 µM,1.93 µM,0.34 µM,1.83 µM,0.295 µM,2.82 µM,0.142 µM,1.16 µM,1.25 µM,2.61 µM,0.418 µM,3.21 µM,1.78 µM,6.09 µM,1.55 µM,3.71 µM,0.182 µM,1.31 µM
O=c1c2cc(Br)ccc2[nH]c(=S)n1-c1ccccc1,,> 100 µM,,> 100 µM,,> 100 µM,,> 100 µM,,> 100 µM,,> 100 µM,,> 100 µM,,> 100 µM,,> 100 µM,,> 100 µM
COc1cc(-c2ccc(Nc3ccccc3C(=O)O)c(OC)c2)ccc1Nc1ccccc1C(=O)O,,60.7 µM,,36.7 µM,,66.9 µM,,> 58.9 µM,,> 100 µM,,> 100 µM,,> 73.6 µM,,> 100 µM,,> 100 µM,,> 100 µM
CS(=O)/C(C#N)=C\C=C\c1cccc(Cl)c1 (centres undefined),5.02 µM,20.3 µM,2.41 µM,11.2 µM,2.93 µM,7 µM,1.97 µM,6.56 µM,2.25 µM,4.44 µM,1.87 µM,3.96 µM,2.74 µM,12.2 µM,3.05 µM,10.7 µM,3.21 µM,12.2 µM,2.71 µM,11.6 µM
CCOC(=O)c1c(C(F)(F)F)n([O-])c2ccc(Cl)cc2[n+]1=O,2.13 µM,5.78 µM,2.05 µM,3.99 µM,1.17 µM,2.64 µM,1.48 µM,2.93 µM,1.65 µM,3.29 µM,1.51 µM,2.96 µM,2.23 µM,10.3 µM,1.24 µM,2.83 µM,2.11 µM,3.71 µM,1.87 µM,3.74 µM
N#Cc1ccc(N2Cc3cc(Cl)ccc3OC3=C2C(=O)N(Cc2ccc(F)cc2)C3=O)cc1,1.62 µM,3.75 µM,1.02 µM,3.71 µM,0.58 µM,1.32 µM,0.436 µM,0.868 µM,1.57 µM,3.65 µM,1.26 µM,2.94 µM,0.567 µM,1.19 µM,4.65 µM,14.5 µM,0.578 µM,1.27 µM,0.411 µM,1.02 µM
O=C1c2ccccc2C(=O)c2c(NCCNCCO)ccc(NCCNCCO)c21,0.232 µM and 0.281 µM and 0.47 µM,2.24 µM and 3.35 µM and 5.4 µM,0.127 µM and 0.158 µM and 0.189 µM,1.91 µM and 3.38 µM and 2.16 µM,0.289 µM and 0.508 µM and 0.227 µM,4.94 µM and 5.08 µM and 2.08 µM,5.36 µM and 1.58 µM and 2.79 µM,38.1 µM and 27.7 µM and 36.9 µM,1.01 µM and 1.27 µM and 0.724 µM,3 µM and 5.1 µM and 2.64 µM,1.41 µM and 1.13 µM and 1.09 µM,3.34 µM and 2.87 µM and 2.86 µM,0.183 µM and 0.358 µM and 0.292 µM,4.57 µM and 12.5 µM and 9.84 µM,0.416 µM and 0.655 µM and 0.89 µM,4.47 µM and 9.66 µM and 9.97 µM,0.757 µM and 1.69 µM and 1.18 µM,4.66 µM and 14.3 µM and 12.9 µM,1.15 µM and 1.08 µM and 0.838 µM,11.8 µM and 13.5 µM and 11.3 µM
O=C1/C(=C\c2ccc([N+](=O)[O-])cc2)CS(=O)(=O)C/C1=C/c1ccc([N+](=O)[O-])cc1,0.163 µM,,0.256 µM,2.48 µM,0.258 µM,0.656 µM and 6.43 µM,0.605 µM,0.366 µM and 1.85 µM,0.252 µM,0.983 µM and 0.645 µM,0.4 µM,3.03 µM,0.344 µM and 0.366 µM,1.56 µM,0.563 µM,6.42 µM,0.133 µM,0.356 µM and 0.359 µM,0.0889 µM,0.481 µM and 2.74 µM
CCCCCCCCCCCCNC(=O)[C@H]1CSC(c2cc(Br)cs2)N1 (some centres undefined),0.895 µM,1.76 µM,0.991 µM,1.99 µM,4.61 µM,11.5 µM,0.979 µM,2.42 µM,8.16 µM,16 µM,5.57 µM,11.8 µM,1.11 µM,2.56 µM,1.42 µM,5.01 µM,2.51 µM,8.32 µM,1.4 µM,4.19 µM
[CH3][Sn]([CH3])([CH3])[O]C(=O)C(O)c1ccccc1 (centres undefined),16.4 µM,94 µM,3.9 µM,> 69.8 µM,2.91 µM,14.4 µM,4.16 µM,31.5 µM,4.93 µM,23.7 µM,1.83 µM,3.35 µM,8.7 µM,99 µM,3.67 µM,16.9 µM,4.81 µM,> 100 µM,5.13 µM,> 100 µM
COc1ccc(-c2nnc(Nc3nc(O)c(C4=c5cc(OC(F)(F)F)ccc5=NC4=O)s3)o2)cc1,17.4 µM,38.1 µM,22 µM,> 100 µM,15.7 µM,43.5 µM,21.9 µM,54.3 µM,25.4 µM,> 100 µM,17.7 µM,42.9 µM,16.5 µM,40.5 µM,6.12 µM,> 100 µM,11.2 µM,24.3 µM,38.2 µM,> 100 µM
CC(=O)Nc1c(I)c(C(=O)O)c(I)c(N(C)C(C)=O)c1I,> 100 µM,> 100 µM,> 100 µM,> 100 µM,> 100 µM,> 100 µM,> 100 µM,> 100 µM,> 100 µM,> 100 µM,> 100 µM,> 100 µM,> 100 µM,> 100 µM,> 100 µM,> 100 µM,> 100 µM,> 100 µM,> 100 µM,> 100 µM
O=C(NC1CCNCC1)c1[nH]ncc1NC(=O)c1c(Cl)cccc1Cl,0.346 µM and 0.325 µM,4.01 µM and 2.32 µM,0.338 µM and 0.381 µM,> 45.6 µM,0.323 µM and 0.222 µM,0.671 µM,16.7 µM and > 7.2 µM,> 76.6 µM,0.218 µM and 0.182 µM,0.558 µM and 0.726 µM,2.44 µM and 0.961 µM,7.67 µM and 5.53 µM,1.24 µM and 0.387 µM,> 50.3 µM,1.13 µM and 1.01 µM,> 51.8 µM,1 µM and 0.543 µM,> 100 µM,0.365 µM and 0.425 µM,> 10 µM
Cc1ccc2nc3sc(=O)sc3nc2c1,,27.9 µM,,26.6 µM,,28.9 µM,,28.9 µM,,27.8 µM,,29.1 µM,,29 µM,,31 µM,,28.8 µM,,67.9 µM
O=C1c2ccccc2-c2c1c1c(O)cccc1n2CCCc1ccccc1,11.2 µM,50.9 µM,29.7 µM,> 100 µM,45.3 µM,> 100 µM,7.66 µM,> 100 µM,17.8 µM,> 100 µM,12.6 µM,27.8 µM,14 µM,67.9 µM,7.33 µM,> 100 µM,21 µM,99.3 µM,51.9 µM,> 100 µM
COc1cccc(C(C#N)NC23CC4CC(CC(C4)C2)C3)c1 (centres undefined),,> 100 µM,,> 100 µM,,> 100 µM,,> 100 µM,,> 100 µM,,> 100 µM,,> 100 µM,,> 100 µM,,> 100 µM,,> 100 µM
COc1ccc(Oc2nc(Nc3ccc(N4CCOCC4)cc3)ncc2NC(=O)Nc2cc(OC)cc(OC)c2)cc1,3.84 µM,11.8 µM,1.31 µM,5.72 µM,1.26 µM,5.1 µM,5.33 µM,24.8 µM,5.27 µM,14.7 µM,1.11 µM,3.79 µM,1.17 µM,4.5 µM,4.19 µM,12.7 µM,1.31 µM,5.74 µM,3.17 µM,> 33.3 µM
